Test results from patent US4205171A, “Aminomethanobenzazocines and nitromethanobenzazocines” (Sterling Drug Inc., priority 1978, dated 1980).
Structures can show the parent of a compound that is named as a salt. Where two headings read alike, the source gives them in different places.

Tests used:
[1] = tested on: phenazocine (agonist effect in rat tail-flick); assay: Tail-flick antagonist test against phenazocine; settings: for ED50: Rattus norvegicus, sc, 10 min, read-out: Tail-flick Antagonist AD50
[2] = tested on: acetylcholine-induced writhing; assay: Anti-acetylcholine writhing test (analgesia); assay type: in vivo, mice; settings: for ED50: Mus musculus, 20 min, mice; for Oral:Parenteral Potency Ratio: peroral ED50 / subcutaneous ED50, anti-acetylcholine test
Experimental: In this test the ability of test compounds to prevent acetylcholine-induced writhing in mice is determined. The following is an adaptation of the method of Collier and co-workers (Brit. J. Pharmacol. Chemother., 32, 295(1968)) by Anne K. Pierson. Anti-acetylcholine Writhing Test
This response has also been called writhing. Animals are pretreated with test compounds (20 minutes for both subcutaneous and oral routes) and observed for two minutes immediately following the administration of acetylcholine. Mice not responding during the two-minute observation period are scored protected while those responding one or more times are scored not protected. Test compounds are screened at doses of 75 and 25 milligrams per kilogram subcutaneously or 150 and 50 mlligrams per kilogram orally. […] ED50 values for active compounds are estimated by probit analysis of quantal scores for 4 or more dosage levels using 15 animals per dose. Vehicle-pretreated control animals are tested concurrently with each run of 15 experimental animals.

[3] = tested on: tail-flick response to thermal stimulus; assay: Tail-flick agonist test; assay type: in vivo; settings: rats, subcutaneous; for Tail-flick Agonist ED50: 30 minutes after injection
Experimental: Rats normally respond to a thermal stimulus applied to the tail by flicking their tails out from under the heat source. The intensity of the stimulus utilized is one which produces control response-times (CRT) of 2-4 seconds. Experimental response-times (ERT) are determined 30 minutes after subcutaneous injections. […] Therefore, the maximum possible increase (MPI) in response-time for any given animal is 20 minus the CRT. The average % effect, or % of the maximum possible increase (%MPI) obtained after any given test compound treatment is calculated by the formula [formula] […] Exptl.

[4] = Tests for analgesia, comparison with cyclazocine and pentazocine; assay type: in vivo; settings: both subcutaneously and orally
Description: The compound of Example 1B having in the free base form the structural formula [drawing 14] is the preferred species of this invention and the biological properties thereof have been carefully compared with those of pentazocine and cyclazocine.

[5] = Irritation at the injection site; assay type: in vivo; settings: rabbits
Description: A still further important difference is the comparative irritation at the injection site of pentazocine and the compound of Example 1B. The threshold irritation concentration of the latter in rabbits was 2% and of pentazocine, 0.5%.

[6] = Intravenous administration in the dog (unconsciousness, heart rate, blood pressure); assay type: in vivo
[7] = sc, subcutaneous, 20 minutes pretreatment, read-out: ED50, anti-acetylcholine writhing test
[8] = po, peroral, read-out: Peroral ED50, anti-acetylcholine test

In the case of `CC[C@H]1[C@H]2Cc3ccc(N)cc3[C@]1(CC)CCN2CC1CC1` (relative stereo) [Example 12H, 8-amino-3-(cyclopropylmethyl)-cis-6,11-diethyl-1,2,3,4,5,6-hexahydro-2,6-methano-3-benzazocine dihydrochloride], the ED50 [1] is reported as 3.8 mg/kg and the ED50 [2, 7] is reported as 1.3 mg/kg.

With `CCNc1ccc2c(c1)[C@]1(C)CCN(CC3CC3)[C@H](C2)[C@@H]1C` (relative stereo) [Example 9B, 3-(cyclopropylmethyl)-8-(ethylamino)-1,2,3,4,5,6-hexahydro-cis-6,11-dimethyl-2,6-methano-3-benzazocine] the ED50 [1] was 10 mg/kg, the “Tail-flick Antagonist % Antagonism” value ([1]; rats, subcutaneous, against phenazocine, at 80 mg./kg., different sample) was 19% and the ED50 [2, 7] was 1.3 mg/kg. The “Tail-flick Agonist % MPI” value ([3]; at 60 mg./kg.) was 25% and the “Tail-flick Agonist % MPI” value ([3]; at 120 mg./kg., different sample) was 21%.

With `CCCN1CC[C@@]2(C)c3cc(N)ccc3C[C@@H]1[C@@H]2C` (relative stereo) [Example 6C, 8-amino-cis-6,11-dimethyl-1,2,3,4,5,6-hexahydro-3-propyl-2,6-methano-3-benzazocine dihydrochloride sesquihydrate] the ED50 [1] was 2 mg/kg, the ED50 [2, 7] was 5.6 mg/kg and the “Tail-flick Agonist ED50” value [3] was “Inactive at 60”.

For `C[C@H]1[C@H]2Cc3ccc(N)cc3[C@]1(C)CCN2C` (relative stereo) [Formula G, α-2'-amino-2,5,9-trimethyl-6,7-benzomorphan, reference compound], the Narcotic antagonist activity ([1]; rat, in vivo) was “not a narcotic antagonist”, the “Tail-flick Antagonist AD50” value ([1]; rats, subcutaneous, against phenazocine) was “Inactive at 80” and the ED50 [2, 7] was 7.5 mg/kg. For the same compound, the “Tail-flick Agonist ED50” value [3] was “Inactive at 120”.

For `C[C@H]1[C@H]2Cc3ccc(N(C)C)cc3[C@]1(C)CCN2CC1CC1` (relative stereo) [Example 4F, 3-cyclopropylmethyl-8-dimethylamino-cis-6,11-dimethyl-1,2,3,4,5,6-hexahydro-2,6-methano-3-benzazocine dihydrochloride], the “Tail-flick Antagonist % Antagonism” value ([1]; rats, subcutaneous, against phenazocine, at 10 mg./kg.) was 30%, the “Tail-flick Antagonist % Antagonism” value ([1]; rats, subcutaneous, against phenazocine, at 80 mg./kg.) was 32% and the ED50 [2, 7] was 0.79 mg/kg. For the same compound, the “Tail-flick Agonist % MPI” value ([3]; at 60 mg./kg.) was 43%.

In the case of `CNc1ccc2c(c1)[C@]1(C)CCN(CC3CC3)[C@H](C2)[C@@H]1C` (relative stereo) [Example 3B, 3-(cyclopropylmethyl)-1,2,3,4,5,6-hexahydro-cis-6,11-dimethyl-8-(methylamino)-2,6-methano-3-benzazocine dihydrochloride ethanolate hydrate], the ED50 [1] is reported as 1.3 mg/kg, the ED50 [2, 7] is reported as 0.44 mg/kg and the “Tail-flick Agonist % MPI” value ([3]; at 120 mg./kg.) is reported as 35%.

In the case of `C[C@H]1[C@H]2Cc3ccc(NCc4ccccc4)cc3[C@]1(C)CCN2CC1CC1` (relative stereo) [Example 7, 3-(cyclopropylmethyl)-1,2,3,4,5,6-hexahydro-cis-6,11-dimethyl-8-benzylamino-2,6-methano-3-benzazocine dihydrochloride], the ED50 [1] is reported as 1 mg/kg and the ED50 [2, 7] is reported as 1.6 mg/kg.

In the case of `CC(C)=CCN1CCC2(C)c3cc(O)ccc3CC1C2C` (stereo not drawn) [pentazocine, reference compound], the ED50 [1] is reported as 6.3 mg/kg, the “Potency relative to the compound of Example 1B in the tests for analgesia” value [4] is reported as “significantly less potent” and the Threshold irritation concentration [5] is reported as 0.5%. The Unconsciousness [6] was “without unconsciousness”, the Convulsions ([6]; single dose tested) was “induced convulsions” and the ED50 [2, 8] was 51 mg/kg. The ED50 [2, 7] was 2.2 mg/kg, the “Oral:Parenteral Potency Ratio” value [2] was 23 and the “Tail-flick Agonist ED50” value [3] was “Inactive at 120”.

For `CCCNc1ccc2c(c1)[C@]1(C)CCN(CC3CC3)[C@H](C2)[C@@H]1C` (relative stereo) [Example 10B, 3-(cyclopropylmethyl)-1,2,3,4,5,6-hexahydro-cis-6,11-dimethyl-8-(propylamino)-2,6-methano-3-benzazocine], the “Tail-flick Antagonist % Antagonism” value ([1]; rats, subcutaneous, against phenazocine, at 5 mg./kg., different sample) was 32%, the “Tail-flick Antagonist % Antagonism” value ([1]; rats, subcutaneous, against phenazocine, at 40 mg./kg.) was 31% and the ED50 [2, 7] was 1.2 mg/kg.

In the case of `C[C@H]1[C@H]2Cc3ccc(N)cc3[C@]1(C)CCN2CC1CC1` (relative stereo) [Example 1B, 8-amino-3-(cyclopropylmethyl)-1,2,3,4,5,6-hexahydro-cis-6,11-dimethyl-2,6-methano-3-benzazocine dihydrochloride], the ED50 [1] is reported as 2.7 mg/kg, the Threshold irritation concentration [5] is reported as 2% and the “Heart rate and blood pressure” value [6] is reported as “without compromising heart rate or blood pressure”. For the same compound, the Salivation and tremors [6] was “Salivation and tremors were observed”, the Unconsciousness [6] was “produced unconsciousness equivalent to a light plane of anesthesia” and the ED50 [2, 8] was 3.2 mg/kg. For the same compound, the ED50 [2, 7] was 0.8 mg/kg and the “Oral:Parenteral Potency Ratio” value [2] was 4.

For `C[C@H]1[C@H]2Cc3ccc(O)cc3[C@]1(C)CCN2CC1CC1` (relative stereo) [cyclazocine, reference compound], the ED50 [1] was 0.028 mg/kg, the “Heart rate and blood pressure” value [6] was “increases in heart rate and blood pressure” and the Unconsciousness [6] was “produced unconsciousness”. For the same compound, the ED50 [2, 8] was 5.3 mg/kg, the ED50 [2, 7] was 0.15 mg/kg and the “Oral:Parenteral Potency Ratio” value [2] was 35. For the same compound, the “Tail-flick Agonist ED50” value [3] was “Inactive at 120”.

`C[C@H]1[C@H]2Cc3ccc(NCC4CC4)cc3[C@]1(C)CCN2CC1CC1` (relative stereo) [Example 2E, 3-(cyclopropylmethyl)-8-(cyclopropylmethylamino)-1,2,3,4,5,6-hexahydro-cis-6,11-dimethyl-2,6-methano-3-benzazocine hydrochloride] showed an ED50 [1] of 8 mg/kg and an ED50 [2, 7] of 0.7 mg/kg.

Compound `CCCCNc1ccc2c(c1)[C@]1(C)CCN(CC3CC3)[C@H](C2)[C@@H]1C` (relative stereo) [Example 11B, 8-(butylamino)-3-(cyclopropylmethyl)-1,2,3,4,5,6-hexahydro-cis-6,11-dimethyl-2,6-methano-3-benzazocine] has an ED50 [2, 7] of 1 mg/kg.

Compound `CC(C)CN1CC[C@@]2(C)c3cc(N)ccc3C[C@@H]1[C@@H]2C` (relative stereo) [Example 5C, 8-amino-1,2,3,4,5,6-hexahydro-3-isobutyl-cis-6,11-dimethyl-2,6-methano-3-benzazocine dihydrochloride] has an ED50 [1] of 9.4 mg/kg and an ED50 [2, 7] of 1.5 mg/kg.

`C=CCN1CC[C@@]2(C)c3cc(N)ccc3C[C@@H]1[C@@H]2C` (relative stereo) [Example 8C, 8-amino-1,2,3,4,5,6-hexahydro-cis-6,11-dimethyl-3-(2-propenyl)-2,6-methano-3-benzazocine dihydrochloride] gave an ED50 [1] of 1.5 mg/kg and an ED50 [2, 7] of 2.5 mg/kg.
